Source: ChEMBL document CHEMBL1255543, “On resin amino acid side chain attachment strategy for the head to tail synthesis of new glutamine containing gramicidin-S analogs and their antimicrobial activity” (2010)
In brackets after ≈: the same amount, converted by molar mass. Peptide text beside a SMILES is read from it.

Key:
Type in all cases: functional
[1] = test system: Enterococcus faecalis; assay: Antimicrobial activity against Enterococcus faecalis ATCC 51299 by broth microdilution assay
[2] = test system: Pseudomonas aeruginosa; assay: Antimicrobial activity against Pseudomonas aeruginosa ATCC 27853 by broth microdilution assay
[3] = test system: Escherichia coli; assay: Antimicrobial activity against Escherichia coli ATCC 25922 by broth microdilution assay
[4] = test system: Streptococcus agalactiae; assay: Antimicrobial activity against Streptococcus agalactiae COH1 by broth microdilution assay
[5] = test system: Streptococcus pyogenes; assay: Antimicrobial activity against Streptococcus pyogenes by broth microdilution assay
[6] = test system: Staphylococcus aureus; assay: Antimicrobial activity against methicillin-resistant Staphylococcus aureus ATCC 33591 by broth microdilution assay
[7] = Streptococcus pyogenes, read-out: MIC

Row | SMILES | MIC [1] | MIC [2] | MIC [3] | MIC [4] | MIC [5, 7] | MIC [6] | MIC [5]
1 | CC(C)C[C@@H]1NC(=O)[C@H](CCC(N)=O)NC(=O)[C@H](C(C)C)NC(=O)[C@@H]2CCCN2C(=O)[C@@H](Cc2ccc(O)cc2)NC(=O)[C@H](CC(C)C)NC(=O)[C@H](CCC(N)=O)NC(=O)[C@H](C(C)C)NC(=O)[C@@H]2CCCN2C(=O)[C@@H](Cc2ccc(O)cc2)NC1=O | > 100 µg/mL | > 100 µg/mL | > 100 µg/mL | > 100 µg/mL | > 100 µg/mL | > 100 µg/mL | 
2 | CC(C)C[C@@H]1NC(=O)[C@H](CCC(N)=O)NC(=O)[C@H](C(C)C)NC(=O)[C@@H]2CCCN2C(=O)[C@@H](Cc2c[nH]c3ccccc23)NC(=O)[C@H](CC(C)C)NC(=O)[C@H](CCC(N)=O)NC(=O)[C@H](C(C)C)NC(=O)[C@@H]2CCCN2C(=O)[C@@H](Cc2c[nH]c3ccccc23)NC1=O | > 100 µg/mL | > 100 µg/mL | > 100 µg/mL | > 100 µg/mL | > 100 µg/mL | > 100 µg/mL | 
3 | CC(C)C[C@@H]1NC(=O)[C@H](CCC(N)=O)NC(=O)[C@H](C(C)C)NC(=O)[C@@H]2CCCN2C(=O)[C@@H](c2ccccc2)NC(=O)[C@H](CC(C)C)NC(=O)[C@H](CCC(N)=O)NC(=O)[C@H](C(C)C)NC(=O)[C@@H]2CCCN2C(=O)[C@@H](c2ccccc2)NC1=O | > 100 µg/mL | > 100 µg/mL | > 100 µg/mL | > 100 µg/mL | 10 µg/mL (≈ 8.76 µM) | > 100 µg/mL | 
4 | CC(C)C[C@@H]1NC(=O)[C@H](CCC(N)=O)NC(=O)[C@H](C(C)C)NC(=O)[C@@H]2CCCN2C(=O)[C@@H](Cc2cccs2)NC(=O)[C@H](CC(C)C)NC(=O)[C@H](CCC(N)=O)NC(=O)[C@H](C(C)C)NC(=O)[C@@H]2CCCN2C(=O)[C@@H](Cc2cccs2)NC1=O | > 100 µg/mL | > 100 µg/mL | > 100 µg/mL | > 100 µg/mL | > 100 µg/mL | > 100 µg/mL | 
5 | CC(C)C[C@@H]1NC(=O)[C@H](CCC(N)=O)NC(=O)[C@H](C(C)C)NC(=O)[C@@H]2CCCN2C(=O)[C@@H](Cc2ccc(F)cc2)NC(=O)[C@H](CC(C)C)NC(=O)[C@H](CCC(N)=O)NC(=O)[C@H](C(C)C)NC(=O)[C@@H]2CCCN2C(=O)[C@@H](Cc2ccc(F)cc2)NC1=O | > 100 µg/mL | > 100 µg/mL | > 100 µg/mL | > 100 µg/mL | 10 µg/mL (≈ 8.3 µM) | > 100 µg/mL | 
6 | CC(C)C[C@@H]1NC(=O)[C@H](CCC(N)=O)NC(=O)[C@H](C(C)C)NC(=O)[C@@H]2CCCN2C(=O)[C@@H](Cc2ccc(I)cc2)NC(=O)[C@H](CC(C)C)NC(=O)[C@H](CCC(N)=O)NC(=O)[C@H](C(C)C)NC(=O)[C@@H]2CCCN2C(=O)[C@@H](Cc2ccc(I)cc2)NC1=O | > 100 µg/mL | > 100 µg/mL | > 100 µg/mL | > 100 µg/mL | 10 µg/mL (≈ 7.04 µM) | > 100 µg/mL | 
7 | CC(C)C[C@@H]1NC(=O)[C@H](CCC(N)=O)NC(=O)[C@H](CC(C)C)NC(=O)[C@@H]2CCCN2C(=O)[C@H](Cc2ccccc2)NC(=O)[C@H](CC(C)C)NC(=O)[C@H](CCC(N)=O)NC(=O)[C@H](CC(C)C)NC(=O)[C@@H]2CCCN2C(=O)[C@H](Cc2ccccc2)NC1=O (cyclo(FPLQLFPLQL)) | > 100 µg/mL | > 100 µg/mL | > 100 µg/mL | > 100 µg/mL | 10 µg/mL (≈ 8.35 µM) | > 100 µg/mL | 
8 | CC(C)C[C@@H]1NC(=O)[C@H](CCC(N)=O)NC(=O)[C@H](CC(C)C)NC(=O)[C@@H]2CCCN2C(=O)[C@H](Cc2ccccc2)NC(=O)[C@H](C(C)C)NC(=O)[C@H](CCC(N)=O)NC(=O)[C@H](CC(C)C)NC(=O)[C@@H]2CCCN2C(=O)[C@H](Cc2ccccc2)NC1=O (cyclo(FPLQLFPLQV)) | > 100 µg/mL | > 100 µg/mL | > 100 µg/mL | 10 µg/mL (≈ 8.45 µM) | 10 µg/mL (≈ 8.45 µM) | > 100 µg/mL | 
9 | CC(C)C[C@@H]1NC(=O)[C@H](CCC(N)=O)NC(=O)[C@H](CC(C)C)NC(=O)[C@@H]2CCCN2C(=O)[C@H](Cc2ccccc2)NC(=O)[C@H](C(C)C)NC(=O)[C@H](CCC(N)=O)NC(=O)[C@H](C(C)C)NC(=O)[C@@H]2CCCN2C(=O)[C@H](Cc2ccccc2)NC1=O (cyclo(FPLQLFPVQV)) | > 100 µg/mL | > 100 µg/mL | > 100 µg/mL | > 100 µg/mL | 10 µg/mL (≈ 8.55 µM) | > 100 µg/mL | 
10 | CC(C)C[C@@H]1NC(=O)[C@H](CCC(N)=O)NC(=O)[C@H](C(C)C)NC(=O)[C@@H]2CCCN2C(=O)[C@H](Cc2ccccc2)NC(=O)[C@H](C(C)C)NC(=O)[C@H](CCC(N)=O)NC(=O)[C@H](CC(C)C)NC(=O)[C@@H]2CCCN2C(=O)[C@H](Cc2ccccc2)NC1=O (cyclo(FPLQVFPVQL)) | > 100 µg/mL | > 100 µg/mL | > 100 µg/mL | > 100 µg/mL | 10 µg/mL (≈ 8.55 µM) | > 100 µg/mL | 
11 | CC(C)C[C@@H]1NC(=O)[C@H](CCC(N)=O)NC(=O)[C@H](C(C)C)NC(=O)[C@@H]2CCCN2C(=O)[C@H](Cc2ccccc2)NC(=O)[C@H](CC(C)C)NC(=O)[C@H](CCC(N)=O)NC(=O)[C@H](C(C)C)NC(=O)[C@@H]2CCCN2C(=O)[C@H](Cc2ccccc2)NC1=O (cyclo(FPVQLFPVQL)) | > 100 µg/mL | > 100 µg/mL | > 100 µg/mL | > 100 µg/mL | 10 µg/mL (≈ 8.55 µM) | > 100 µg/mL | 
12 | CC(C)C[C@@H]1NC(=O)[C@H](CCC(N)=O)NC(=O)[C@H](C(C)C)NC(=O)[C@@H]2CCCN2C(=O)[C@H](Cc2ccccc2)NC(=O)[C@H](C(C)C)NC(=O)[C@H](CCC(N)=O)NC(=O)[C@H](C(C)C)NC(=O)[C@@H]2CCCN2C(=O)[C@H](Cc2ccccc2)NC1=O (cyclo(FPVQLFPVQV)) | > 100 µg/mL | > 100 µg/mL | > 100 µg/mL | > 100 µg/mL | 10 µg/mL (≈ 8.65 µM) | > 100 µg/mL | 
13 | CC(C)[C@@H]1NC(=O)[C@H](CCC(N)=O)NC(=O)[C@H](C(C)C)NC(=O)[C@@H]2CCCN2C(=O)[C@H](Cc2ccccc2)NC(=O)[C@H](C(C)C)NC(=O)[C@H](CCC(N)=O)NC(=O)[C@H](C(C)C)NC(=O)[C@@H]2CCCN2C(=O)[C@H](Cc2ccccc2)NC1=O (cyclo(FPVQVFPVQV)) | > 100 µg/mL | > 100 µg/mL | > 100 µg/mL | > 100 µg/mL | > 100 µg/mL | > 100 µg/mL | 
14 | CC(C)C[C@@H]1NC(=O)[C@@H]2CCCN2C(=O)[C@H](Cc2ccccc2)NC(=O)[C@H](C(C)C)NC(=O)[C@H](CCC(N)=O)NC(=O)[C@H](C(C)C)NC(=O)[C@@H]2CCCN2C(=O)[C@H](Cc2ccccc2)NC(=O)[C@H](C(C)C)NC(=O)[C@H](CCC(N)=O)NC1=O (stereo in doubt; form 1) | > 100 µg/mL | > 100 µg/mL | > 100 µg/mL | > 100 µg/mL |  | > 100 µg/mL | >100 µg/mL
15 | CC(C)C[C@@H]1NC(=O)[C@@H]2CCCN2C(=O)[C@H](Cc2ccccc2)NC(=O)[C@H](C(C)C)NC(=O)[C@H](CCC(N)=O)NC(=O)[C@H](C(C)C)NC(=O)[C@@H]2CCCN2C(=O)[C@H](Cc2ccccc2)NC(=O)[C@H](C(C)C)NC(=O)[C@H](CCC(N)=O)NC1=O (stereo in doubt; form 2) |  |  |  |  |  |  | 10 µg/mL (≈ 8.65 µM)
